Measured values as given in patent US20220296718A1, “EXCIPIENT FOR BIOTHERAPEUTICS” (Ludwig-Maximilians-Universität München, priority 2019, published 2022).

Key:
Assay type in all cases: physicochemical
IgG antibody trastuzumab [1] = test: Particle formation after freezing/thawing stress of trastuzumab (flow imaging microscopy); details: 50 mM phosphate buffer, pH 7.0; 5 mg/ml trastuzumab; 50 mM excipient; FIG. 1
Protocol: (§1) Production of Test Solutions: The buffer solution consisted of 50 mM sodium phosphate at pH 7.0. Protein stock solutions were liberated from other excipients by IEX chromatography to remove potential impurities and surfactants and by dialysis over 24 h in buffer solution 100-200 times of their volumes. The buffer solution was renewed after 3 hours and after 14 hours. Stock solutions of test excipients were produced by dissolving 500 mM of the excipient in 90% of the required amount of buffer solution. After that, the pH was adjusted and the remaining volume of buffer solution was added. Then, the solution was filtered with a 0.22 μm filter. The corresponding amount of protein stock solution was added. Sufficient homogenization was provided.
(§2) Freeze/Thaw-Cycle: The protein-containing solutions were filled into cleaned 2R vials and crimped. The samples were frozen from 20° C. to −50° C. in 3 cycles at a rate of 2K/min in a Christ 2D-6 freeze dryer and then thawed at room temperature until the entire sample had reached the liquid state, before the cycle was started again.
(§3) Flow Imaging Microscopy: 165 μl of the sample solution were measured at 10× magnification using a flow imaging microscope (FlowCam, Fluid Imaging Technologies, Inc., Scarborough, Me., USA).
(§4) The resulting solutions were subjected to freezing/thawing stress and stirring stress.

IgG antibody trastuzumab [2] = test: Particle formation after stirring stress of trastuzumab (flow imaging microscopy); details: 50 mM phosphate buffer, pH 7.0; 5 mg/ml trastuzumab; 50 mM excipient; 2 h at 200 rpm; FIG. 2
Protocol: as §1
Stirring Stress: The protein-containing solutions were filled into cleaned 2R vials and crimped. Afterwards, the samples were stirred for 2 h at 200 rpm with a magnetic stirrer (Variomag Poly 15, Thermofisher, 3 mm polytetrafluoroethylene—coated stirring bars).
as §3, §4

interferon-alpha-2a = interferon-alpha-2a (Homo sapiens, UniProt P01563, R46K); test: Particle formation after freezing/thawing stress of interferon-alpha-2a; details: 50 mM phosphate buffer, pH 7.0; 1 mg/ml interferon-alpha-2a; 50 mM excipient; FIG. 3
Sequence of interferon-alpha-2a (P01563 24-188 R46K): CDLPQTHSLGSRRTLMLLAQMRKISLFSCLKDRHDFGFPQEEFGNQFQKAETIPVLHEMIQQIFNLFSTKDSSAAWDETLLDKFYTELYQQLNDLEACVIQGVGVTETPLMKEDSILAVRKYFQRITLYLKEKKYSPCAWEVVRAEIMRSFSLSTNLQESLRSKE
Protocol: as §1, §2, §3
The resulting solutions were subjected to freeze/thawing stress.

[3] = system: recombinant IgG antibody, either rituximab or omalizumab; test: Particles and turbidity (visual inspection) after freezing/thawing and stirring stress of rituximab or omalizumab; details: 10 mg/ml rituximab or omalizumab, 20 mM histidine pH 6.0, 75 mM excipient; compared with trehalose, sucrose, or trehalose or sucrose with methionine
Protocol: as §1, with “of 20” for “of 50”, “mM histidine buffer” for “mM sodium phosphate at”, “pH 6.0.” for “pH 7.0.”, “excipients” for “excipients by IEX chromatography to remove potential impurities and surfactants and”, “after 6” for “after 3”, “after 20” for “after 14”
Freeze/Thaw-Cycle: The protein-containing solutions were filled into cleaned 6R vials and crimped. The samples were frozen from 20° C. to −70° C. in 5 cycles in a freezer and then thawed at room temperature until the entire sample had reached the liquid state, before the cycle was started again.
Stirring Stress: The protein-containing solutions were filled into cleaned 6R vials and crimped. Afterwards, the samples were stirred for 2 h at 200 rpm with a magnetic stirrer (Variomag Poly 15, Thermofisher, 5 mm polytetrafluoroethylene—coated stirring bars).
Visual inspection: 3 Vials of each formulation were visually inspected according to the method described in the European Pharmacopoeia. […]

recombinant G-CSF = target: T1, recombinant G-CSF (Homo sapiens, UniProt P09919); test: Particles and turbidity after freezing/thawing and stirring stress of G-CSF; details: 1 mg/ml G-CSF, 10 mM acetate pH 4.5, 50 mM excipient; compared with trehalose, sucrose, or trehalose or sucrose with methionine
T1 sequence (P09919 31-207): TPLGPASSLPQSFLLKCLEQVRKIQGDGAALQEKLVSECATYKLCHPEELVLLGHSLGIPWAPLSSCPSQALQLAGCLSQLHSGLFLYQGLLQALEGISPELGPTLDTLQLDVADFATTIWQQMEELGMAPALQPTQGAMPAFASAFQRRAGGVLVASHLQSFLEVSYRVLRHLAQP
Protocol: (§5) The production of test solutions, the freeze/thaw-cycle, the measurement of stirring stress and the visual inspection were performed substantially as described in Example 4.
The buffer solution consisted of 10 mM acetate buffer pH 4.5 and was renewed after 4 hours and after 16 hours. For the freeze/thaw cycle and the measurements of stirring stress, 2R vials were used.
N,N,N′,N′-tetrakis-(2-hydroxyethyl) adipinic acid amide (Ark Pharm Inc.), D(+) trehalose (Sigma-Aldrich), sucrose, and mixtures of trehalose or sucrose with methionine (Sigma-Aldrich) respectively, was added as a test excipient to an aqueous solution containing recombinant G-CSF. […] In the case of sucrose or trehalose mixtures with methionine, the concentration of the sugar was 50 mM, and the concentration of methionine was 20 mM. The resulting solutions were subjected to freezing/thawing stress and stirring stress.

recombinant anakinra = recombinant anakinra (Homo sapiens, UniProt P18510); test: Particles and turbidity after freezing/thawing and stirring stress of anakinra; details: 50 mg/ml anakinra, 20 mM citrate pH 6.5, 50 mM excipient, freezing/thawing and 3 h stirring stress
Sequence of recombinant anakinra (P18510 with tags, fused parts or gaps): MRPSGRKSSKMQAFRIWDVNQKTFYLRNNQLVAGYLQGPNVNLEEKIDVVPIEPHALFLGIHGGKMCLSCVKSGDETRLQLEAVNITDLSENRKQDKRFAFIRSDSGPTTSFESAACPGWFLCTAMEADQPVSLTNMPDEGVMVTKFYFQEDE
Protocol: as §5
The buffer solution consisted of 20 mM citrate buffer pH 6.5. The samples were stirred for 3 h.
N,N,N′,N′-tetrakis-(2-hydroxyethyl) adipinic acid amide (Ark Pharm Inc.), D(+) or trehalose (Sigma-Aldrich), or polysorbate 80, was added as a test excipient to an aqueous solution containing recombinant anakinra. […] In the case of polysorbate 80 its concentration was 0.05%. The resulting solutions were subjected to freezing/thawing stress and stirring stress.

[4] = Solubility in water, classification of the European Pharmacopoeia
Protocol: In certain embodiments, the diamide has a solubility in water of at least about 0.02% (w/v), of at least about 0.05% (w/v), of at least about 0.1% (w/v), of at least about 0.5% (w/v) or of at least about 1% (w/v) at 20° C., e.g. as determined by the column elution method according to the OECD Guidelines, Test No. 105. Preferably, the diamide is considered as soluble, well soluble or freely soluble according to the classifications of the European Pharmacopoeia, which is herein incorporated by reference.

| Compound | Amount of particles after 3 freezing/thawing cycles (IgG antibody trastuzumab [1]) | Amount of particles after stirring stress (IgG antibody trastuzumab [2]) | Amount of particles after 3 freezing/thawing cycles (interferon-alpha-2a) | Particles in stressed formulations [3] | Turbidity of stressed formulations [3] | Particles in stressed formulations (recombinant G-CSF) | Turbidity of stressed formulations (recombinant G-CSF) | Particles in stressed formulations, compared with trehalose (recombinant anakinra) | Turbidity of stressed formulations, compared with trehalose (recombinant anakinra) | Particles in stressed formulations, compared with polysorbate 80 (recombinant anakinra; polysorbate 80 at 0.05%) | Turbidity of stressed formulations, compared with polysorbate 80 (recombinant anakinra; polysorbate 80 at 0.05%) | Solubility according to the classification of the European Pharmacopoeia [4] |
| --- | --- | --- | --- | --- | --- | --- | --- | --- | --- | --- | --- | --- |
| O=C(CCCCC(=O)N(CCO)CCO)N(CCO)CCO [compound A, N,N,N′,N′-tetrakis-(2-hydroxyethyl) adipinic acid amide] | less particles than formulations comprising standard excipients like, glycerol, NaCl, or D(+) trehalose or formulations without any excipients | less particles than formulations comprising standard excipients like, glycerol, NaCl, or D(+) trehalose or formulations without any excipients | less particles than formulations without any excipient and formulations with arginine or polysorbate 20 | less particles | less turbid | less particles | less turbid | less particles | less turbid | about equally low amounts of particles | about equally low in turbidity | well soluble |
| Polysorbate 20 [reference compound] | even less particles |  |  |  |  |  |  |  |  |  |  |  |
